Source: patent publication US20110311657A1, “Use of a Neuroprotective Extract and Pharmaceutical Preparation Thereof” (Universiti Putra Malaysia, priority 2009, published 2011)

What was measured:
Assay type in all cases: in vivo, rat
[1] = test system: hippocampal CA1 pyramidal cells; assay: Neuron viability in hippocampal CA1 of normal and nitric oxide (NO) deficient rats; settings: for viable pyramidal cells in CA1: nitric oxide (NO) deficient rats, 12-week L-NAME administration, FIG. 1a
Description: (§1) Neuroprotective activities of polyphenol-rich palm leaves extract and captopril were evaluated in normal and nitric oxide (NO) deficient rats by assessing neuron viability of three subfields in the hippocampus; CA1. CA3 and DG. […] CA3 and DG of the hippocampus, and that co-administration with palm leaves extract attenuated this effect more effectively than with captopril. The pronounced loss of neurons with L-NAME administration caused the impairment in acquisition, but not retention, of spatial memory in the radial-arm maze task and the Morris water maze task. The neuroprotective effect of palm leaves extract was not significant in normal adult rats where loss of neurons have not occurred.

[2] = test system: brain superoxide dismutase (SOD); assay: Brain superoxide dismutase (SOD) activities in normal and NO deficient rats
[3] = test system: hippocampal CA3 pyramidal cells; assay: Neuron viability in hippocampal CA3 of normal and nitric oxide (NO) deficient rats; settings: nitric oxide (NO) deficient rats, 12-week L-NAME administration; FIG. 1b
Description: as §1, with “DG. […] No significant difference in viability was observed between all 3 groups of normal rats.” for “DG.”

[4] = test system: hippocampal dentate gyrus (DG) granule cells; assay: Neuron viability in hippocampal dentate gyrus of normal and nitric oxide (NO) deficient rats; settings: nitric oxide (NO) deficient rats, 12-week L-NAME administration; FIG. 1c
Description: as §1, with “DG. […] The viability values of all 3 normal groups were similar.” for “DG.”

brain catalase = assay: Brain catalase in normal and NO deficient rats; settings: normal rats, FIG. 2c
[5] = test system: brain malondialdehyde (MDA); assay: Brain malondialdehyde (MDA) concentrations in normal and NO deficient rats; settings: normal rats, FIG. 2d

| SMILES | viable pyramidal cells in CA1 [1] | superoxide dismutase (SOD) activity ([2]; L-NAME administration alone, FIG. 2a) | CA3 pyramidal cells viability [3] | viable granule cells in dentate gyrus (DG) / neurons protected from degeneration [4] | viable pyramidal cell count in CA1 compared to control ([1]; normal rats) | increase of superoxide dismutase (SOD) activities compared with L-NAME treated animals ([2]; nitric oxide (NO) deficient rats, FIG. 2a) | superoxide dismutase (SOD) activity ([2]; normal rats) | catalase activity compared to control (brain catalase) | malondialdehyde (MDA) level [5] |
| --- | --- | --- | --- | --- | --- | --- | --- | --- | --- |
| COC(=O)[C@@H](N)CCCNC(=N)N[N+](=O)[O-] [L-NAME] | 40% | decreased | 15% |  |  |  |  |  |  |
| C[C@H](CS)C(=O)N1CCC[C@H]1C(=O)O [captopril] | partial neuroprotection |  | 35% | 34% | no significant change | 51% | maintaining | depleted significantly | maintaining |
